# Data reported in patent publication US20080114066A1, “Synergistic Effects Of Docosahexaenoic Acid (DHA) And Carotenoid Absorption Of Cognitive Function” (Trustees of Tufts College, priority 2005, published 2008).
# Assays:
# Assay type in all cases: in vivo, human
# [1] = test system: non-smoking women (60-80 years); experiment: NES2 Mood Scales (self-reported mood); design: scale not given here; details: group mean
# Description: (§1) Subjects: Fifty non-smoking women (60-80 years) were recruited from the general population for a 4 month supplementation study. All subjects underwent a screening examination that includes a medical history, a physical examination, and a routine blood clinical chemistry profile. Volunteers with any history or biochemical evidence of lactose intolerance, liver, kidney, or pancreatic disease, anemia, active bowel disease or resection, insulin-dependent diabetes, easy bruising or bleeding, bleeding disorders, hyperglyceridemia, hyperlipidproteinemia, or alcoholism were excluded from the study. Moreover, individuals taking mineral oil or medications suspected of interfering with fat-soluble vitamin absorption were excluded. Subjects using steroids or non-steroid anti-inflammatory drugs, or antihistamine drugs were excluded. […] Subjects were excluded if they have taken any nutrient supplement for 2 months or more before admission into the study or carotene supplements 6 months or more before the study. Smoking was not permitted during the course of the study.
# (§2) Women were randomly assigned to one of four groups: Control (n=10), DHA (n=14, DHA 800 mg/d), lutein (n=12, lutein 12 mg/d), and lutein+DHA (n=14, lutein 12 mg/d; DHA 800 mg/d) (C, D, L, and LD, respectively). The supplement type was randomized. Subjects visited the Jean Mayer USDA Human Nutrition Research Center on Aging at Tufts University on days that supplements were distributed and blood obtained (0 mo-baseline, 2 mo, and 4 mo). Subjects were instructed to take the supplement with a nutritional energy drink (8 oz., Boost®, Mead Johnson Nutritionals) but were otherwise asked to not alter their diets. The diet of each subject was monitored with food frequency questionnaires (Block G, et al., A data-based approach to diet questionnaire design and testing. Am J Epidemiol, 1986. 24: p. 453-469) completed at baseline, 2 months and 4 months to be sure that there were no confounding changes in dietary intake. All subjects completed at least two sets of cognitive and mood self-report tests, at the beginning of the study, then at the end of the study, after four months of supplementation, at the Schepens Eye Research Institute. Compliance was by monitored by interview, compliance calendars and capsule count. Both the subjects and the experimenter were masked to the experimental groups. Blood samples were collected at baseline, 2 months and 4 months, and serum was separated from red blood cells (800×g, 10 minutes). Aliquots of serum are stored at −70° C. until analyzed. At baseline and 2 months, a two month supply of placebo supplements, DHA (800 mg/d, DHASCO, Martek Biological Sciences), lutein (12 mg/d plus 0.5 mg zeaxanthin, Kemin Foods), or lutein+DHA (12 mg/d and 800 mg/d, respectively and nutritional energy drink was provided. At baseline and 4 months, subjects visited the Schepens Eye Research Institute (Boston, Mass.) for testing of MP optical density (MPOD) and an ophthalmic exam. There were two visits at each time point.
# (§3) Supplementation Protocol. Dietary supplements in capsule form were Lutein (12 mg/day) (Kemin Foods) and Docosahexaenoic Acid (DHASCO) (800 mg/day) (Martek Biological Sciences). Participants in each of the four supplementation groups were instructed to drink one can of a nutritional supplement daily (Boost Plus) (Mead Johnson) when taking their capsules. Subjects ingested their dietary supplements daily for a period of 4 months. Both the subjects and the experimenter were masked to the experimental groups.
# (§4) Tests and Measurements. The battery of cognitive tests included tests of memory and processing speed or attention and a measure of self-reported mood. […] Early cognitive markers of the incidence of dementia and mortality: A longitudinal population-based study of the oldest old. International Journal of Geriatric Psychiatry, 12, 53-59; Payton, M., Riggs, K. M., Spiro III, A., Weiss, S. T. & Hu, H. (1998). […]
# [2] = test system: non-smoking women (60-80 years); experiment: MIR (Memory in Reality) apartment test; details: group mean
# Description: as §1, §2, §3, §4
# [3] = test system: serum lipoproteins (VLDL, LDL, HDL); experiment: Serum cholesterol, lipoproteins and lipoprotein subfractions by NMR spectroscopy; details: for Serum HDL concentration / Serum LDL concentration / Serum VLDL concentration / Serum total Cholesterol concentration: after 4 months of supplementation, mean ± se
# Procedure: At study end (4 mo), serum was analyzed for total cholesterol, lipoproteins (VLDL, LDL, HDL) as well as lipoprotein subfractions using NMR spectroscopy (Otvos, J. D., Clin Lab, 2002. 48: p. 171-180). The NMR method employs the characteristic methyl group signals broadcast by lipoprotein subclasses of different size as the basis for their quantification. Each measurement includes the concentrations of 5 subclasses of HDL (larger numbers denoting larger subclasses), 3 subclasses of LDL and 6 subclasses of VLDL (V1-V6). Lipoprotein subclasses were grouped into large, intermediate and small subclasses. That is, large, intermediate, and small HDL were H5+H4, H3, and H2+H1, respectively. Large, intermediate and small LDL were L3, L2, and L1, respectively. And large, intermediate and small VLDL were V6+V5, V4+V3, and V2+V1, respectively.
# Results are expressed as mean ±SE. Within each group, each subject was followed longitudinally and significant differences from baseline were measured using Student's paired t-test (Systat version10, Port Richmond, Calif. Group differences were measured using ANOVA followed by the Bonferroni post hoc test (Systat10).
# [4] = test system: non-smoking women (60-80 years); experiment: NES2 Pattern Comparison (Pattern Recognition) Test; details: group mean
# Description: as §1, §2, §3, §4
# [5] = test system: non-smoking women (60-80 years); experiment: Word List Memory Test; details: group mean
# Description: as §1, §2, §3, §4
# [6] = test system: non-smoking women (60-80 years); experiment: Verbal Fluency Test; details: group mean
# Description: as §1
# as §2, with “At baseline and 2 months, a two month supply of placebo supplements, DHA (800 mg/d, DHASCO, Martek Biological Sciences), lutein (12 mg/d plus 0.5 mg zeaxanthin, Kemin Foods), or lutein+DHA (12 mg/d and 800 mg/d, respectively and nutritional energy drink was provided. At baseline and 4 months, subjects visited the Schepens Eye Research Institute (Boston, Mass.) for testing of MP optical density (MPOD) and an ophthalmic exam. There were two visits at each time point.” left out
# [7] = test system: non-smoking women (60-80 years); experiment: Digit Span Forward and Backward; details: group mean
# Description: as §1, §2, §3, §4
# [8] = test system: non-smoking women (60-80 years); experiment: Shopping List Task (memory test); details: group mean
# Description: as §1, §2, §3, §4
# [9] = Baseline, before supplementation
# [10] = Final, after 4 months of supplementation
# [11] = Final, after 4 months of supplementation (DHA 800 mg/d and/or lutein 12 mg/d)
compound,measurement,setting,value
"CC/C=C\C/C=C\C/C=C\C/C=C\C/C=C\C/C=C\CCC(=O)O [DHA, cis-4,7,10,13,16,19-docosahexaenoic acid]",Mood Scales Anger,[1]; [9],1.6
same,Mood Scales Confusion,[1]; [9],1.7
same,Mood Scales Depression,[1]; [9],1.7
same,Mood Scales Fatigue,[1]; [9],2.1
same,Mood Scales Tension,[1]; [9],2.0
same,Mood Scales Anger,[1]; [10],1.6
same,Mood Scales Confusion,[1]; [10],1.8
same,Mood Scales Depression,[1]; [10],1.7
same,Mood Scales Fatigue,[1]; [10],2.1
same,Mood Scales Tension,[1]; [10],2.1
same,MIR Apartment Test Delayed Recall (max. 10),[2]; [9],9.4
same,MIR Apartment Test Location Recall (max. 10),[2]; [9],9.9
same,MIR Apartment Test Delayed Recall (max. 10),[2]; [10],9.4
same,MIR Apartment Test Location Recall (max. 10),[2]; [10],10.0
same,Serum HDL concentration,[3],67 ± 3 mg cholesterol/dL
same,Serum LDL concentration,[3],125 ± 5 mg cholesterol/dL
same,Serum VLDL concentration,[3],78 ± 14 mg cholesterol/dL
same,Serum total Cholesterol concentration,[3],209 ± 5 mg cholesterol/dL
same,Pattern Recognition Test Mean Response Time-Correct,[4]; [9],5.4 s
same,Pattern Recognition Test Number Correct (max. 15),[4]; [9],14.6
same,Pattern Recognition Test Mean Response Time-Correct,[4]; [10],5.0 s
same,Pattern Recognition Test Number Correct (max. 15),[4]; [10],14.6
same,Word List Memory Test Delayed Recall (max. 10),[5]; [9],8.1
same,Word List Memory Test Trial 1 Items Recalled (max. 10),[5]; [9],6.3
same,Word List Memory Test Trials to Learned List (max. 4),[5]; [9],3.0
same,Word List Memory Test Delayed Recall (max. 10),[5]; [10],8.6
same,Word List Memory Test Trial 1 Items Recalled (max. 10),[5]; [10],5.9
same,Word List Memory Test Trials to Learned List (max. 4),[5]; [10],3.0
same,Verbal Fluency,[6]; [9],15.0
same,Verbal Fluency,[6]; [11],17.8
same,Backward Digit Span Length,[7]; [9],5.4
same,Backward Digit Span Total,[7]; [9],7.9
same,Forward Digit Span Length,[7]; [9],6.6
same,Forward Digit Span Total,[7]; [9],8.4
same,Backward Digit Span Length,[7]; [10],5.8
same,Backward Digit Span Total,[7]; [10],8.4
same,Forward Digit Span Length,[7]; [10],6.7
same,Forward Digit Span Total,[7]; [10],8.5
same,Shopping List Memory Test Delayed Recall (max. 10),[8]; [9],9.0
same,Shopping List Memory Test Trial 1 Items Recalled (max. 10),[8]; [9],7.2
same,Shopping List Memory Test Trials to Learned List (max. 6),[8]; [9],3.1
same,Shopping List Memory Test Delayed Recall (max. 10),[8]; [10],8.7
same,Shopping List Memory Test Trial 1 Items Recalled (max. 10),[8]; [10],7.7
same,Shopping List Memory Test Trials to Learned List (max. 6),[8]; [10],2.6
"CC1=C[C@H](O)CC(C)(C)[C@H]1/C=C/C(C)=C/C=C/C(C)=C/C=C/C=C(C)/C=C/C=C(C)/C=C/C1=C(C)C[C@@H](O)CC1(C)C [Lutein, lutein]",Mood Scales Anger,[1]; [9],1.4
same,Mood Scales Confusion,[1]; [9],1.9
same,Mood Scales Depression,[1]; [9],1.5
same,Mood Scales Fatigue,[1]; [9],2.4
same,Mood Scales Tension,[1]; [9],2.1
same,Mood Scales Anger,[1]; [10],1.5
same,Mood Scales Confusion,[1]; [10],2.4
same,Mood Scales Depression,[1]; [10],1.8
same,Mood Scales Fatigue,[1]; [10],2.9
same,Mood Scales Tension,[1]; [10],2.4
same,MIR Apartment Test Delayed Recall (max. 10),[2]; [9],8.3
same,MIR Apartment Test Location Recall (max. 10),[2]; [9],9.5
same,MIR Apartment Test Delayed Recall (max. 10),[2]; [10],8.6
same,MIR Apartment Test Location Recall (max. 10),[2]; [10],9.5
same,Serum HDL concentration,[3],70 ± 5 mg cholesterol/dL
same,Serum LDL concentration,[3],113 ± 6 mg cholesterol/dL
same,Serum VLDL concentration,[3],75 ± 12 mg cholesterol/dL
same,Serum total Cholesterol concentration,[3],199 ± 8 mg cholesterol/dL
same,"Intermediate HDL subclass, group comparison",[3]; study end (4 mo),significantly greater in the L group than in the LD group
same,Pattern Recognition Test Mean Response Time-Correct,[4]; [9],6.1 s
same,Pattern Recognition Test Number Correct (max. 15),[4]; [9],14.5
same,Pattern Recognition Test Mean Response Time-Correct,[4]; [10],6.4 s
same,Pattern Recognition Test Number Correct (max. 15),[4]; [10],14.3
same,Word List Memory Test Delayed Recall (max. 10),[5]; [9],6.8
same,Word List Memory Test Trial 1 Items Recalled (max. 10),[5]; [9],5.8
same,Word List Memory Test Trials to Learned List (max. 4),[5]; [9],3.4
same,Word List Memory Test Delayed Recall (max. 10),[5]; [10],7.6
same,Word List Memory Test Trial 1 Items Recalled (max. 10),[5]; [10],5.8
same,Word List Memory Test Trials to Learned List (max. 4),[5]; [10],3.5
same,Verbal Fluency,[6]; [9],11.3
same,Verbal Fluency,[6]; [11],15.5
same,Backward Digit Span Length,[7]; [9],5.1
same,Backward Digit Span Total,[7]; [9],7.5
same,Forward Digit Span Length,[7]; [9],6.6
same,Forward Digit Span Total,[7]; [9],8.1
same,Backward Digit Span Length,[7]; [10],4.7
same,Backward Digit Span Total,[7]; [10],6.9
same,Forward Digit Span Length,[7]; [10],7.0
same,Forward Digit Span Total,[7]; [10],8.7
same,Shopping List Memory Test Delayed Recall (max. 10),[8]; [9],8.3
same,Shopping List Memory Test Trial 1 Items Recalled (max. 10),[8]; [9],6.9
same,Shopping List Memory Test Trials to Learned List (max. 6),[8]; [9],4.2
same,Shopping List Memory Test Delayed Recall (max. 10),[8]; [10],7.6
same,Shopping List Memory Test Trial 1 Items Recalled (max. 10),[8]; [10],6.5
same,Shopping List Memory Test Trials to Learned List (max. 6),[8]; [10],3.9
